SMILES strings stand for the structures. Where two headings read alike, the source gives them in different places.

The subject of the experiment is HCV pseudoparticles (genotype 1a HCV E1 and E2 envelope, H77C isolate). The experiment in a line: microbe, parasite or virus in culture. Format: cell-based. The note with it: Hepatitis C virus.
The mark [1] stands for this setting: Huh-7, 48 h, read-out: Activity (EC50 class), HCV pseudoparticles, Huh7 cells, luciferase 2 days after infection, average of duplicates.
Where [2] appears, read: Huh-7, read-out: Activity (EC50 class), HCV pseudoparticles (genotype 1a, H77C) in Huh7 cells, EC50 expressed as class A/B.
Where [3] appears, read: Huh-7, 48 h, HCV pseudoparticle infection of Huh7 cells, luciferase 2 days after infection, average of duplicates.
Where [4] appears, read: Huh-7, 48 h, read-out: Activity (EC50 class), HCV pseudoparticle infection of Huh7 cells, luciferase 2 days after infection, EC50 expressed as class A/B.

The EC50 is the concentration that produces a half-maximal response. `COC(=O)[C@H](CNC(=O)C(=O)Nc1ccc(NC(C)=O)nc1)NC(=O)c1ccc(Nc2nc(NC3(c4ccc(Cl)cc4)CC3)nc(OCC(F)(F)F)n2)cc1` [Compound 3706]: under setting [1], the EC50 lay in the range of 0.01 to 10 nM.
Regarding `COC(=O)[C@@H](CCNC(=O)C(=O)Nc1cccc(-c2ccnc(C)n2)c1)NC(=O)c1ccc(Nc2nc(NC3(c4ccc(Cl)cc4)CC3)nc(OCC(F)(F)F)n2)cc1` [Compound 3583], the EC50 under setting [2] is 0.01 to 10 nM.
With `C[C@H](NC(=O)C(=O)NCC[C@H](NC(=O)c1ccc(Nc2nc(NC3(c4ccc(Cl)cc4)CC3)nc(OCC(F)(F)F)n2)cc1)C(=O)O)C1CC1` [Compound 1435], the EC50 runs as follows: under setting [3], 0.11 nM; under setting [4], 0.01 to 10 nM.
As to `CC(C)(CNC(=O)C(=O)Nc1ccc(C(F)(F)F)c(F)c1)CNC(=O)c1ccc(Nc2nc(NC3(c4ccc(Cl)cc4)CC3)nc(OCC(F)(F)F)n2)cc1` [Compound 3250], under setting [2], the 50% effective concentration (EC50) was in the range of 0.01 to 10 nM.
As to `COc1cc(NC(=O)C(=O)NCC(C)(C)CNC(=O)c2ccc(Nc3nc(NC4(c5ccc(Cl)cc5)CC4)nc(OCC(F)(F)F)n3)cc2)ccc1-c1ccccc1` [Compound 3679], under setting [1], the half-maximal effective concentration (EC50) lay in the range of 0.01 to 10 nM.
On to `COC(=O)[C@H](CNC(=O)C(=O)Nc1ccc(N2CC(C)NC(C)C2)cc1)NC(=O)c1ccc(Nc2nc(NC3(c4ccc(Cl)cc4)CC3)nc(OCC(F)(F)F)n2)cc1` (stereo partly shown) [Compound 3092], for which the half-maximal effective concentration (EC50) under setting [2] is 0.01 to 10 nM.
As for `COC(=O)[C@H](CCNC(=O)C(=O)NCCc1ccccc1)NC(=O)c1ccc(Nc2nc(NC3(c4ccc(Cl)cc4)CC3)nc(OCC(F)(F)F)n2)cc1` [Compound 1308], the EC50 under setting [4] fell in the range of 0.01 to 10 nM.
For the molecule `COC(=O)[C@H](CNC(=O)C(=O)Nc1cccc(F)c1)NC(=O)c1ccc(Nc2nc(NC3(c4ccc(Cl)cc4)CC3)nc(OCC(F)(F)F)n2)cc1` [Compound 1249], the half-maximal effective concentration (EC50) under setting [4] lay in the range of 0.01 to 10 nM.
For the molecule `COc1ccc(NC(=O)C(=O)NCC(C)(C)CNC(=O)c2ccc(Nc3nc(NC4(c5ccc(Cl)cc5)CC4)nc(OCC(F)(F)F)n3)cc2)cn1` [Compound 3257], the EC50 under setting [2] lay within 0.01 to 10 nM.
Same read-out and setting: to `CC(C)(CNC(=O)C(=O)Nc1nncs1)CNC(=O)c1ccc(Nc2nc(NC3(c4ccc(Cl)cc4)CC3)nc(OCC(F)(F)F)n2)cc1` [Compound 3382] belongs 0.01 to 10 nM.
Same read-out and setting: the result for `O=C(NCC[C@H](NC(=O)c1ccc(Nc2nc(NC3(c4ccc(Cl)cc4)CC3)nc(OCC(F)(F)F)n2)cc1)C(=O)O)C(=O)Nc1ccc(OCC(F)(F)F)cc1` [Compound 3226] reads 0.01 to 10 nM.
Same read-out and setting: to `O=C(NCCC(NC(=O)c1ccc(Nc2nc(NC3(c4ccc(Cl)cc4)CC3)nc(OCC(F)(F)F)n2)cc1)C(=O)O)C(=O)Nc1ccc(-n2ccnc2)cc1` (stereo not shown) [Compound 3521] belongs 0.01 to 10 nM.
On to `O=C(NCC[C@H](NC(=O)c1ccc(Nc2nc(NC3(c4ccc(Cl)cc4)CC3)nc(OCC(F)(F)F)n2)cc1)C(=O)O)C(=O)Nc1ccc(F)c(F)c1F` [Compound 1509], for which, under setting [4], the concentration for a half-maximal effect (EC50) was 0.01 to 10 nM.
The same measure, in the same setting: the result for `COC(=O)[C@H](CNC(=O)C(=O)NCc1ccc(OC)c(OC)c1)NC(=O)c1ccc(Nc2nc(NC3(c4ccc(Cl)cc4)CC3)nc(OCC(F)(F)F)n2)cc1` [Compound 1152] reads 0.01 to 10 nM.
Take `Cc1ccc(NC(=O)C(=O)NCC(O)CNC(=O)c2ccc(Nc3nc(NC4(c5ccc(Cl)cc5)CC4)nc(OCC(F)(F)F)n3)cc2)cc1Cl` (stereo not shown) [Compound 3466]: the EC50 under setting [2] is 0.01 to 10 nM.
As for `CC(C)(CNC(=O)C(=O)NC1CCCCC1)CNC(=O)c1ccc(Nc2nc(NC3(c4ccc(Cl)cc4)CC3)nc(OCC(F)(F)F)n2)cc1` [Compound 1544], the 50% effective concentration (EC50) runs as follows: under setting [3], 0.08 nM; under setting [4], 0.01 to 10 nM.
Turning to `COC(=O)[C@H](CNC(=O)C(=O)NCCc1cnn(C)c1)NC(=O)c1ccc(Nc2nc(NC3(c4ccc(Cl)cc4)CC3)nc(OCC(F)(F)F)n2)cc1` [Compound 1302], under setting [4], the EC50 fell in the range of 0.01 to 10 nM.
As to `COC(=O)[C@H](CNC(=O)C(=O)NCc1cc(F)cc(F)c1)NC(=O)c1ccc(Nc2nc(NC3(c4ccc(Cl)cc4)CC3)nc(OCC(F)(F)F)n2)cc1` [Compound 1138], the 50% effective concentration (EC50) is 0.81 nM under setting [3] and 0.01 to 10 nM under setting [4].
On to `O=C(NC[C@H](NC(=O)c1ccc(Nc2nc(NC3(c4ccc(Cl)cc4)CC3)nc(OCC(F)(F)F)n2)cc1)C(=O)O)C(=O)Nc1cccc(S(=O)(=O)N2CCCCC2)c1` [Compound 3772], for which the EC50 is 7.42 nM (Huh-7, 48 h, HCV pseudoparticles, Huh7 cells, luciferase 2 days after infection, average of duplicates) and 0.01 to 10 nM under setting [1].
As to `COC(=O)[C@H](CCNC(=O)C(=O)Nc1cccc(-n2ccnc2)c1)NC(=O)c1ccc(Nc2nc(NC3(c4ccc(Cl)cc4)CC3)nc(OCC(F)(F)F)n2)cc1` [Compound 3610], under setting [1], the EC50 lay within 0.01 to 10 nM.
In the case of `O=C(NCCc1cccc(F)c1)C(=O)NC[C@H](NC(=O)c1ccc(Nc2nc(NC3(c4ccc(Cl)cc4)CC3)nc(OCC(F)(F)F)n2)cc1)C(=O)O` [Compound 1401], the concentration giving a half-maximal response (EC50) under setting [4] was 0.01 to 10 nM.
On to `CC(=O)N1CCN(c2ccc(NC(=O)C(=O)NCCC(NC(=O)c3ccc(Nc4nc(NC5(c6ccc(Cl)cc6)CC5)nc(OCC(F)(F)F)n4)cc3)C(=O)O)cc2)CC1` (stereo not shown) [Compound 3524], for which the EC50 under setting [2] was in the range of 0.01 to 10 nM.
On to `CC(C)(CNC(=O)C(=O)Nc1ccon1)CNC(=O)c1ccc(Nc2nc(NC3(c4ccc(Cl)cc4)CC3)nc(OCC(F)(F)F)n2)cc1` [Compound 3040], for which, under setting [2], the EC50 is 0.01 to 10 nM.
Regarding `O=C(NCC[C@H](NC(=O)c1ccc(Nc2nc(NC3(c4ccc(Cl)cc4)CC3)nc(OCC(F)(F)F)n2)cc1)C(=O)O)C(=O)NCC1(c2ccccc2)CC1` [Compound 1421], under setting [4], the 50% effective concentration (EC50) is 0.01 to 10 nM.
As to `O=C(NCC[C@H](NC(=O)c1ccc(Nc2nc(NC3(c4ccc(Cl)cc4)CC3)nc(OCC(F)(F)F)n2)cc1)C(=O)O)C(=O)Nc1cccc(-c2ncc[nH]2)c1` [Compound 3634], the EC50 under setting [1] lay in the range of 0.01 to 10 nM.
As for `O=C(NCC[C@H](NC(=O)c1ccc(Nc2nc(NC3(c4ccc(Cl)cc4)CC3)nc(OCC(F)(F)F)n2)cc1)C(=O)O)C(=O)NCc1cc(F)cc(F)c1` [Compound 1192], the half-maximal effective concentration (EC50) under setting [4] was in the range of 0.01 to 10 nM.
With `COC(=O)[C@H](CNC(=O)C(=O)Nc1cccc(-c2nc(C)cs2)c1)NC(=O)c1ccc(Nc2nc(NC3(c4ccc(Cl)cc4)CC3)nc(OCC(F)(F)F)n2)cc1` [Compound 3725], the EC50 under setting [1] was 0.01 to 10 nM.
Regarding `CCc1cccc(NC(=O)C(=O)NCC[C@@H](NC(=O)c2ccc(Nc3nc(NC4(c5ccc(Cl)cc5)CC4)nc(OCC(F)(F)F)n3)cc2)C(=O)OC)c1` [Compound 3573], under setting [2], the EC50 was 0.01 to 10 nM.
As for `CC(C)(CNC(=O)C(=O)NCc1ccc(F)cc1F)CNC(=O)c1ccc(Nc2nc(NC3(c4ccc(Cl)cc4)CC3)nc(OCC(F)(F)F)n2)cc1` [Compound 1034, N1-(3-(4-(4-(1-(4-chlorophenyl)cyclopropylamino)-6-(2,2,2-trifluoroethoxy)-1,3,5-triazin-2-ylamino)benzamido)-2,2-dimethylpropyl)-N2-(2,4-difluorobenzyl)oxalamide], under setting [4], the concentration for a half-maximal effect (EC50) lay in the range of 0.01 to 10 nM.
Take `Cc1ccc(NC(=O)C(=O)N2CCCC(CNC(=O)c3ccc(Nc4nc(NC5(c6ccc(Cl)cc6)CC5)nc(OCC(F)(F)F)n4)cc3)C2)cc1` (stereo not shown) [Compound 3481]: it took 0.065 nM to reach a half-maximal effect (Huh-7, 48 h, HCV pseudoparticles (genotype 1a, H77C) in Huh7 cells, average of duplicate, luciferase 2 days after infection) (EC50) and the EC50 under setting [2] lay in the range of 0.01 to 10 nM.
In the case of `CCc1ccc(NC(=O)C(=O)NCC(C)(C)CNC(=O)c2ccc(Nc3nc(NC4(c5ccc(Cl)cc5)CC4)nc(OCC(F)(F)F)n3)cc2)cc1` [Compound 1583], the EC50 under setting [4] lay within 0.01 to 10 nM.
For the molecule `COC(=O)[C@H](CNC(=O)C(=O)Nc1ccc(Cn2cncn2)cc1)NC(=O)c1ccc(Nc2nc(NC3(c4ccc(Cl)cc4)CC3)nc(OCC(F)(F)F)n2)cc1` [Compound 3182], under setting [2], the EC50 was 0.01 to 10 nM.

These data come from patent US8916702B2 (priority 2012, dated 2014).
